In patent publication US20230131899A1, “INHIBITORS OF MICROBIALLY INDUCED AMYLOID” (Axial Therapeutics, Inc., priority 2020, published 2023):
Like-named read-outs stand apart in the source and are kept apart here.

Biological target: T1, human α-synuclein (Homo sapiens, UniProt P37840)
T1 construct: the full-length gene for untagged human α-synuclein was inserted; made in house; host or cells: E. coli BL21(DE3), plasmid derived from pT7 or pET11a
Assay: Cell-free Thioflavin T assay of α-synuclein aggregation (αSyn ThT Assay)
Format: biochemical
Conditions: αSyn 50 μM
How it was run: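 Inhibition is reported as 100% minus background-corrected ThT signal relative to vehicle wells, taken at 36, 47, 48 or 72 h or the last read. Reactions held 50 μM recombinant α-synuclein, 20-100 μM compound, 20-40 μM ThT and 1% DMSO. Incubation was at 37° C., shaken, with a glass bead.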

[1] = mean % inhibition of αSyn aggregation relative to DMSO control, compounds at 100 μM, read-out: αSyn ThT Assay % Inhibition
[2] = compounds at 100 μM, class symbol, read-out: αSyn ThT Assay % Inhibition (activity range)
[3] = class symbol, compounds 100 μM, read-out: αSyn ThT Assay % inhibition, activity range
[4] = mean percent inhibition relative to DMSO control, compounds 100 μM, read-out: αSyn ThT Assay % inhibition

Structure (SMILES) | inhibition at 100 µM [1] [%] | inhibition at 100 µM [2] [%] | inhibition at 100 µM [3] [%] | inhibition at 100 µM [4] [%]
O=C(O)C1CN(C[C@@H](O)CO)S(=O)(=O)c2c(-c3cccc(C(F)(F)F)c3)c(Cc3cccc4ccccc34)cc(=O)n21 (mixture of isomers) [Compound 065b, 2-((R)-2,3-dihydroxypropyl)-8-(naphthalen-1-ylmethyl)-6-oxo-9-(3-(trifluoromethyl)phenyl)-3,4-dihydro-2H,6H-pyrido[1,2-e][1,2,5]thiadiazine-4-carboxylic acid 1,1-dioxide] | 9 | -10 to 10 |  | 
O=C(O)C1CN(C[C@H](O)[C@@H](O)[C@H](O)[C@H](O)CO)S(=O)(=O)c2c(-c3cccc(C(F)(F)F)c3)c(Cc3cccc4ccccc34)cc(=O)n21 (mixture of isomers) [Compound 066, 8-(naphthalen-1-ylmethyl)-6-oxo-2-((2S,3R,4R,5R)-2,3,4,5,6-pentahydroxyhexyl)-9-(3-(trifluoromethyl)phenyl)-3,4-dihydro-2H,6H-pyrido[1,2-e][1,2,5]thiadiazine-4-carboxylic acid 1,1-dioxide] | 13 | 11 to 30 |  | 
O=C(O)[C@H]1CN(Cc2ccccc2)c2c(-c3cccc(C(F)(F)F)c3)c(Cc3cccc4ccccc34)c(Cl)c(=O)n21 (single isomer, unassigned) [Compound 004b] |  |  | 31 to 60 | 44
CCCN1CC(C(=O)O)n2c(c(-c3cccc(C(F)(F)F)c3)c(Cc3cccc4ccccc34)cc2=O)S1(=O)=O (single isomer, unassigned) [Compound 016b, 8-(naphthalen-1-ylmethyl)-6-oxo-2-propyl-9-(3-(trifluoromethyl)phenyl)-3,4-dihydro-2H,6H-pyrido[1,2-e][1,2,5]thiadiazine-4-carboxylic acid 1,1-dioxide] | 95 | > 60 |  | 
Nc1c(Cc2cccc3ccccc23)c(-c2cccc(C(F)(F)F)c2)c2n(c1=O)C(C(=O)O)CS2 (single isomer, unassigned) [Compound 020b, 6-amino-7-(naphthalen-1-ylmethyl)-5-oxo-8-(3-(trifluoromethyl)phenyl)-2,3-dihydro-5H-thiazolo[3,2-a]pyridine-3-carboxylic acid] | 25 | 11 to 30 |  | 
CCCCCN1CC(C(=O)O)n2c(c(-c3cccc(C(F)(F)F)c3)c(Cc3cccc4ccccc34)cc2=O)S1(=O)=O (single isomer, unassigned) [Compound 025a, 8-(naphthalen-1-ylmethyl)-6-oxo-2-pentyl-9-(3-(trifluoromethyl)phenyl)-3,4-dihydro-2H,6H-pyrido[1,2-e][1,2,5]thiadiazine-4-carboxylic acid 1,1-dioxide] | 50 | 31 to 60 |  | 
O=C(O)C1CN(Cc2ccccc2)c2c(-c3cccc(C(F)(F)F)c3)c(Cc3cccc4ccccc34)c(Br)c(=O)n21 (stereo not drawn) [Compound 003, 1-benzyl-6-bromo-7-(naphthalen-1-ylmethyl)-5-oxo-8-(3-(trifluoromethyl)phenyl)-1,2,3,5-tetrahydroimidazo[1,2-a]pyridine-3-carboxylic acid] |  |  | > 60 | 76
O=C(O)C1CN(Cc2ccccc2)c2c(-c3cccc(C(F)(F)F)c3)c(Cc3cccc4ccccc34)c(Cl)c(=O)n21 (stereo not drawn) [Compound 004, 1-benzyl-6-chloro-7-(naphthalen-1-ylmethyl)-5-oxo-8-(3-(trifluoromethyl)phenyl)-1,2,3,5-tetrahydroimidazo[1,2-a]pyridine-3-carboxylic acid] |  |  | 31 to 60 | 55
CNC(=O)C1CN(C)S(=O)(=O)c2c(-c3cccc(C(F)(F)F)c3)c(Cc3cccc4ccccc34)cc(=O)n21 (stereo not drawn) [Compound 031, N,2-dimethyl-8-(naphthalen-1-ylmethyl)-6-oxo-9-(3-(trifluoromethyl)phenyl)-3,4-dihydro-2H,6H-pyrido[1,2-e][1,2,5]thiadiazine-4-carboxamide 1,1-dioxide] | 18 | 11 to 30 |  | 
CN(C)C(=O)C1CN(C)S(=O)(=O)c2c(-c3cccc(C(F)(F)F)c3)c(Cc3cccc4ccccc34)cc(=O)n21 (stereo not drawn) [Compound 032, N,N-2-trimethyl-8-(naphthalen-1-ylmethyl)-6-oxo-9-(3-(trifluoromethyl)phenyl)-3,4-dihydro-2H,6H-pyrido[1,2-e][1,2,5]thiadiazine-4-carboxamide 1,1-dioxide] | 8 | -10 to 10 |  | 
Cn1c(=O)c2c(ncn2CCCCN2CC(C(=O)O)n3c(c(-c4cccc(C(F)(F)F)c4)c(Cc4cccc5ccccc45)cc3=O)S2(=O)=O)n(C)c1=O (stereo not drawn) [Compound 033, 2-(4-(1,3-dimethyl-2,6-dioxo-1,2,3,6-tetrahydro-7H-purin-7-yl)butyl)-8-(naphthalen-1-ylmethyl)-6-oxo-9-(3-(trifluoromethyl)phenyl)-3,4-dihydro-2H,6H-pyrido[1,2-e][1,2,5]thiadiazine-4-carboxylic acid 1,1-dioxide] | 6 | -10 to 10 |  | 
Cn1c(=O)c2c(ncn2CCCCCN2CC(C(=O)O)n3c(c(-c4cccc(C(F)(F)F)c4)c(Cc4cccc5ccccc45)cc3=O)S2(=O)=O)n(C)c1=O (stereo not drawn) [Compound 034, 2-(5-(1,3-dimethyl-2,6-dioxo-1,2,3,6-tetrahydro-7H-purin-7-yl)pentyl)-8-(naphthalen-1-ylmethyl)-6-oxo-9-(3-(trifluoromethyl)phenyl)-3,4-dihydro-2H,6H-pyrido[1,2-e][1,2,5]thiadiazine-4-carboxylic acid 1,1-dioxide] | 5 | -10 to 10 |  | 
Cn1c(=O)c2c(ncn2CCCCCCCN2CC(C(=O)O)n3c(c(-c4cccc(C(F)(F)F)c4)c(Cc4cccc5ccccc45)cc3=O)S2(=O)=O)n(C)c1=O (stereo not drawn) [Compound 036] | 16 | 11 to 30 |  | 
CNC(=O)CCCN1CC(C(=O)O)n2c(c(-c3cccc(C(F)(F)F)c3)c(Cc3cccc4ccccc34)cc2=O)S1(=O)=O (stereo not drawn) [Compound 037, 2-(4-(methylamino)-4-oxobutyl)-8-(naphthalen-1-ylmethyl)-6-oxo-9-(3-(trifluoromethyl)phenyl)-3,4-dihydro-2H,6H-pyrido[1,2-e][1,2,5]thiadiazine-4-carboxylic acid 1,1-dioxide] | 36 | 31 to 60 |  | 
CNC(=O)CCCCN1CC(C(=O)O)n2c(c(-c3cccc(C(F)(F)F)c3)c(Cc3cccc4ccccc34)cc2=O)S1(=O)=O (stereo not drawn) [Compound 038, 2-(5-(methylamino)-5-oxopentyl)-8-(naphthalen-1-ylmethyl)-6-oxo-9-(3-(trifluoromethyl)phenyl)-3,4-dihydro-2H,6H-pyrido[1,2-e][1,2,5]thiadiazine-4-carboxylic acid 1,1-dioxide] | 42 | 31 to 60 |  | 
Nc1c(Cc2ccc(N)c3ccccc23)c(-c2cccc(C(F)(F)F)c2)c2n(c1=O)C(C(=O)O)CNS2(=O)=O (stereo not drawn) [Compound 041] | 25 | 11 to 30 |  | 
CC1(C(=O)O)CNS(=O)(=O)c2c(-c3cccc(C(F)(F)F)c3)c(Cc3cccc4ccccc34)cc(=O)n21 (stereo not drawn) [Compound 042, 4-methyl-8-(naphthalen-1-ylmethyl)-6-oxo-9-(3-(trifluoromethyl)phenyl)-3,4-dihydro-2H,6H-pyrido[1,2-e][1,2,5]thiadiazine-4-carboxylic acid 1,1-dioxide] | 84 | > 60 |  | 
Cn1c(=O)c2c(nc(CCCCN3CC(C(=O)O)n4c(c(-c5cccc(C(F)(F)F)c5)c(Cc5cccc6ccccc56)cc4=O)S3(=O)=O)n2C)n(C)c1=O (stereo not drawn) [Compound 044, 8-(naphthalen-1-ylmethyl)-6-oxo-9-(3-(trifluoromethyl)phenyl)-2-(4-(1,3,7-trimethyl-2,6-dioxo-2,3,6,7-tetrahydro-1H-purin-8-yl)butyl)-3,4-dihydro-2H,6H-pyrido[1,2-e][1,2,5]thiadiazine-4-carboxylic acid 1,1-dioxide] | 10 | -10 to 10 |  | 
Cn1c(=O)c2c(nc(CCCCCN3CC(C(=O)O)n4c(c(-c5cccc(C(F)(F)F)c5)c(Cc5cccc6ccccc56)cc4=O)S3(=O)=O)n2C)n(C)c1=O (stereo not drawn) [Compound 045, 8-(naphthalen-1-ylmethyl)-6-oxo-9-(3-(trifluoromethyl)phenyl)-2-(5-(1,3,7-trimethyl-2,6-dioxo-2,3,6,7-tetrahydro-1H-purin-8-yl)pentyl)-3,4-dihydro-2H,6H-pyrido[1,2-e][1,2,5]thiadiazine-4-carboxylic acid 1,1-dioxide] | 15 | 11 to 30 |  | 
Cn1c(=O)c2c(nc(CCCCCCN3CC(C(=O)O)n4c(c(-c5cccc(C(F)(F)F)c5)c(Cc5cccc6ccccc56)cc4=O)S3(=O)=O)n2C)n(C)c1=O (stereo not drawn) [Compound 046, 8-(naphthalen-1-ylmethyl)-6-oxo-9-(3-(trifluoromethyl)phenyl)-2-(6-(1,3,7-trimethyl-2,6-dioxo-2,3,6,7-tetrahydro-1H-purin-8-yl)hexyl)-3,4-dihydro-2H,6H-pyrido[1,2-e][1,2,5]thiadiazine-4-carboxylic acid 1,1-dioxide] | 28 | 11 to 30 |  | 
Cn1c(=O)c2c(nc(CCCCCCCN3CC(C(=O)O)n4c(c(-c5cccc(C(F)(F)F)c5)c(Cc5cccc6ccccc56)cc4=O)S3(=O)=O)n2C)n(C)c1=O (stereo not drawn) [Compound 047, 8-(naphthalen-1-ylmethyl)-6-oxo-9-(3-(trifluoromethyl)phenyl)-2-(7-(1,3,7-trimethyl-2,6-dioxo-2,3,6,7-tetrahydro-1H-purin-8-yl)heptyl)-3,4-dihydro-2H,6H-pyrido[1,2-e][1,2,5]thiadiazine-4-carboxylic acid 1,1-dioxide] | 21 | 11 to 30 |  | 
